Assay results published in the supplement of paper PMC10307832.

Tests used:
Test in all cases: relative viability (nuclei count vs DMSO), 5 days (fraction); higher = more cells survive
IU1-47 + Olaparib = compound: CC1=CC(=C(N1C2=CC=C(C=C2)Cl)C)C(=O)CN3CCCCC3 [IU1-47] + O=C(c1cc(Cc2n[nH]c(=O)c3ccccc23)ccc1F)N1CCN(C(=O)C2CC2)CC1 [Olaparib] (partner 8 µM)
How it was run: (§1)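 Dosing by pin tool came one day after lung cancer cell lines were seeded in 1536-well plates, using either one drug or a fixed anchor-drug dose plus five library-drug doses (not always all listed) in √10 steps. After 5 days, nuclei were counted on 4× images. Relative viability is treated-well nuclei count divided by vehicle-well nuclei count, and values are medians of duplicate plates.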

IU1-47 + Lapatinib = compound: CC1=CC(=C(N1C2=CC=C(C=C2)Cl)C)C(=O)CN3CCCCC3 [IU1-47] + CS(=O)(=O)CCNCc1ccc(-c2ccc3ncnc(Nc4ccc(OCc5cccc(F)c5)c(Cl)c4)c3c2)o1 [Lapatinib] (partner 2 µM)
How it was run: as §1

IU1-47 + Tozasertib = compound: CC1=CC(=C(N1C2=CC=C(C=C2)Cl)C)C(=O)CN3CCCCC3 [IU1-47] + Cc1cc(Nc2cc(N3CCN(C)CC3)nc(Sc3ccc(NC(=O)C4CC4)cc3)n2)n[nH]1 [Tozasertib] (partner 0.1 µM)
How it was run: as §1

IU1-47 + Bortezomib = compound: CC1=CC(=C(N1C2=CC=C(C=C2)Cl)C)C(=O)CN3CCCCC3 [IU1-47] + CC(C)C[C@H](NC(=O)[C@H](Cc1ccccc1)NC(=O)c1cnccn1)B(O)O [Bortezomib] (partner 0.002 µM)
How it was run: as §1

Cell Line | relative viability (IU1-47 + Olaparib; first compound 0.08 µM) | relative viability (IU1-47 + Olaparib; first compound 0.253 µM) | relative viability (IU1-47 + Olaparib; first compound 0.8 µM) | relative viability (IU1-47 + Olaparib; first compound 2.53 µM) | relative viability (IU1-47 + Olaparib; first compound 8 µM) | relative viability (IU1-47 + Lapatinib; first compound 0.08 µM) | relative viability (IU1-47 + Lapatinib; first compound 0.253 µM) | relative viability (IU1-47 + Lapatinib; first compound 0.8 µM) | relative viability (IU1-47 + Lapatinib; first compound 8 µM) | relative viability (IU1-47 + Tozasertib; first compound 0.08 µM) | relative viability (IU1-47 + Tozasertib; first compound 0.253 µM) | relative viability (IU1-47 + Tozasertib; first compound 0.8 µM) | relative viability (IU1-47 + Tozasertib; first compound 2.53 µM) | relative viability (IU1-47 + Tozasertib; first compound 8 µM) | relative viability (IU1-47 + Bortezomib; first compound 0.08 µM) | relative viability (IU1-47 + Bortezomib; first compound 0.253 µM) | relative viability (IU1-47 + Bortezomib; first compound 0.8 µM) | relative viability (IU1-47 + Bortezomib; first compound 2.53 µM) | relative viability (IU1-47 + Bortezomib; first compound 8 µM) | relative viability (IU1-47 + Lapatinib; first compound 2.53 µM)
NCI-H2405 | 0.876 | 0.871 | 0.956 | 0.91 | 0.945 | 1.04 | 1.12 | 1.1 | 1.11 | 0.753 | 0.801 | 0.755 | 0.735 | 0.692 | 1.05 | 0.876 | 1.07 | 0.894 | 0.994 | 
NCI-H1755 | 0.914 | 0.872 | 0.883 | 0.948 | 0.829 | 1.17 | 1.1 | 1.15 | 0.872 | 0.583 | 0.687 | 0.612 | 0.631 | 0.563 | 1.15 | 1.06 | 1.03 | 1.09 | 0.92 | 1.11
HCC-78 | 0.803 | 0.792 | 0.805 | 0.59 | 0.813 | 0.721 | 0.347 | 1 | 0.712 | 0.37 | 0.508 | 0.479 | 0.372 | 0.404 | 0.712 | 0.562 | 0.49 | 0.381 | 0.596 | 0.717
LOU-NH91 | 1.02 | 0.995 | 0.877 | 0.966 | 0.886 | 0.784 | 0.877 | 0.812 | 0.702 | 0.638 | 0.693 | 0.702 | 0.737 | 0.592 | 0.515 | 0.473 | 0.483 | 0.535 | 0.451 | 0.762
NCI-H3122 | 0.644 | 0.665 | 0.692 | 0.692 | 0.696 | 1.06 | 1.06 | 1.06 | 1.03 | 0.442 | 0.423 | 0.371 | 0.46 | 0.331 | 0.962 | 1.02 | 1.08 | 1.09 | 0.996 | 1.09
HCC-827 | 0.617 | 0.694 | 0.631 | 0.683 | 0.648 | 0.198 | 0.215 | 0.197 | 0.207 | 0.458 | 0.424 | 0.449 | 0.409 | 0.383 | 1.22 | 1.12 | 1.05 | 1.08 | 1.11 | 0.19
SK-LU-1 | 0.663 | 0.444 | 0.462 | 0.55 | 0.388 | 0.857 | 0.967 | 0.82 | 0.839 | 0.316 | 0.361 | 0.309 | 0.318 | 0.292 | 1.22 | 1.2 | 1.4 | 1.03 | 1.05 | 0.822
NCI-H1975 | 0.858 | 0.773 | 0.748 | 1.02 | 0.78 | 0.844 | 0.879 | 0.934 | 0.846 | 0.925 | 0.85 | 0.719 | 0.882 | 0.487 | 0.375 | 0.408 | 0.455 | 0.308 | 0.317 | 0.883
